Patent US8815882B2, “Pyrazole aminopyrimidine derivatives as LRRK2 modulators” (Genentech, Inc., priority 2010, dated 2014)

What follows are compounds tested against T1, LRRK2 (Homo sapiens, UniProt Q5S007, G2019S) (assay: In Vitro LRRK2 Assay (LabChip 3000, fluorescently-labeled peptide substrate, ATP)). Details: read-out: LRRK2 Ki (KI), Table 8.
T1 construct: purchased Invitrogen PV4882 (lot 567054A)
Assay type: biochemical
Summary of the method: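 LRRK2, fluorescent peptide substrate (diluted to 4 μM before mixing), ATP and compound were incubated 2 h in the dark, then stopped. Phosphorylated and unphosphorylated peptide were separated by capillary electrophoresis and quantified by fluorescence. Ki was fitted with a tight-binding equation including enzyme concentration, S and Km; IC50 or percent inhibition were also reported.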

T1 sequence (Q5S007 whole entry G2019S): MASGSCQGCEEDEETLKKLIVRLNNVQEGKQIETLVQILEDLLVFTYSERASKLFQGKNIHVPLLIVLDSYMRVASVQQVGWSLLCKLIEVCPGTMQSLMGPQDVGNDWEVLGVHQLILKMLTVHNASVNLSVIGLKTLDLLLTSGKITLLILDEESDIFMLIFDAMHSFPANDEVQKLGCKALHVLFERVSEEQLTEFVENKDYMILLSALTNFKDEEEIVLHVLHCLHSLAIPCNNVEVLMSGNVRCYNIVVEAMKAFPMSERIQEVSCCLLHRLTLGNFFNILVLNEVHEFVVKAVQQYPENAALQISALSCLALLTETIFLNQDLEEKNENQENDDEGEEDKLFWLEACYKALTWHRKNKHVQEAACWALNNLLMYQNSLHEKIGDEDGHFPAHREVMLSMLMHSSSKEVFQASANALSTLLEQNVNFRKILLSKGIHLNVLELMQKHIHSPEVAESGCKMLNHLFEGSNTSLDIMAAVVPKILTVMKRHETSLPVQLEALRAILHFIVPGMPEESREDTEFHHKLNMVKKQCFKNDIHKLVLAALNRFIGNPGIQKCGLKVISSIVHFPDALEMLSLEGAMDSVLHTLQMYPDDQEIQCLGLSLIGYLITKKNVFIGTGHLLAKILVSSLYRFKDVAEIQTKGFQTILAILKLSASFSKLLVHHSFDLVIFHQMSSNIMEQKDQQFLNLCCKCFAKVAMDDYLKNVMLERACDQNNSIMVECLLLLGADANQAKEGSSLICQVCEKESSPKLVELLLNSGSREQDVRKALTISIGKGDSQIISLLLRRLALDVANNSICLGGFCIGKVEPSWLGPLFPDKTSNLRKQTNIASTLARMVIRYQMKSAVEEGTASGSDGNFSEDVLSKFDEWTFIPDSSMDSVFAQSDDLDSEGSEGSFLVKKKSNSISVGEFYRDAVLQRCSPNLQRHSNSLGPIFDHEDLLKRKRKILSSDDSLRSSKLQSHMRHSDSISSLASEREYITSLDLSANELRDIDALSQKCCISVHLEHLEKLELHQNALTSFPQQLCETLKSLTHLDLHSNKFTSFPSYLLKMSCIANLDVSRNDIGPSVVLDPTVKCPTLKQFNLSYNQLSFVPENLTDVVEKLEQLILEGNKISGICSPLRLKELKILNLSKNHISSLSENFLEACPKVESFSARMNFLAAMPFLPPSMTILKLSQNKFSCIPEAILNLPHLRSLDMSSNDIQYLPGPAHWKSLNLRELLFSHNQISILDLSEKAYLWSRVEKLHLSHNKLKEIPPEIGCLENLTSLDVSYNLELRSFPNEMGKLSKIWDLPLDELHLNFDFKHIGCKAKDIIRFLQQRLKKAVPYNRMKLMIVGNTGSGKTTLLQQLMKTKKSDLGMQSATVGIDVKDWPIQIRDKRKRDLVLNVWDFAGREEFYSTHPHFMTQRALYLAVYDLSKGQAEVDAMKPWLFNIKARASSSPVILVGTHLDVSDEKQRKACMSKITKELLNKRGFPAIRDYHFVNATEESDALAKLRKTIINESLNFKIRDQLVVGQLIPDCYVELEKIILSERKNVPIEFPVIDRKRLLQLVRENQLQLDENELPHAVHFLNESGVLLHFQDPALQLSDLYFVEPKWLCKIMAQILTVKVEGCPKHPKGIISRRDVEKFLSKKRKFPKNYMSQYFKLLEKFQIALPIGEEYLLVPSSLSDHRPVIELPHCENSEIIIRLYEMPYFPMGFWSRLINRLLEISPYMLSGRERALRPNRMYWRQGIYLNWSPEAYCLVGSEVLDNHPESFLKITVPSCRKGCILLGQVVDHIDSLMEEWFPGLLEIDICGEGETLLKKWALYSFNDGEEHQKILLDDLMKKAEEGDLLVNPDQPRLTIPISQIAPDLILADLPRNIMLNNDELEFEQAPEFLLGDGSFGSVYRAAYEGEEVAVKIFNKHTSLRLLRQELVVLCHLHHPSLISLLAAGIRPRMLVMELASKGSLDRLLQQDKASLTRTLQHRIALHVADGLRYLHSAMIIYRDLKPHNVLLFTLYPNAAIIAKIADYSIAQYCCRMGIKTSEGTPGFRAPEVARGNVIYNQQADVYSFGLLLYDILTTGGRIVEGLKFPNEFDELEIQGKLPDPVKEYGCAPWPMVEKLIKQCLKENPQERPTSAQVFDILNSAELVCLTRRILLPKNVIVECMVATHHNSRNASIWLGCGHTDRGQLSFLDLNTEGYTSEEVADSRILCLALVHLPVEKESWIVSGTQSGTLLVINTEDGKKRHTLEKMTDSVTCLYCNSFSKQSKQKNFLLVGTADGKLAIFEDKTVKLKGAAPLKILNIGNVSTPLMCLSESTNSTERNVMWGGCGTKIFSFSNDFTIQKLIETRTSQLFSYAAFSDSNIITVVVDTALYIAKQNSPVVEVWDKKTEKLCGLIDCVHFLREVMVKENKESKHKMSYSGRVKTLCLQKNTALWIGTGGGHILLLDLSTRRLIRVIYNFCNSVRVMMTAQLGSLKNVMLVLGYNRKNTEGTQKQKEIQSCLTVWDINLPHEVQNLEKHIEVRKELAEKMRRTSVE

| Ki [nM] | Compound |
| --- | --- |
| 4.7 | CNc1nc(Nc2cnn(-c3ccc(S(C)(=O)=O)cc3)c2C)ncc1C(F)(F)F [Example 125, N4-methyl-N2-(5-methyl-1-(4-(methylsulfonyl)phenyl)-1H-pyrazol-4-yl)-5-(trifluoromethyl) pyrimidine-2,4-diamine] |
| 113 | CNc1nc(Nc2cn(C3C[C@@H]4CC[C@@H](C3)O4)nc2C)ncc1C(F)(F)F (stereo partly drawn) [Example 126, N2-(1-((1S,5S)-8-oxabicyclo[3.2.1]octan-3-yl)-3-methyl-1H-pyrazol-4-yl)-N4-methyl-5-(trifluoromethyl) pyrimidine-2,4-diamine] |
| 0.3 | CCCCn1ncc(Nc2ncc(C(F)(F)F)c(NC)n2)c1C [Example 127, N2-(1-butyl-5-methyl-1H-pyrazol-4-yl)-N4-methyl-5-(trifluoromethyl) pyrimidine-2,4-diamine] |
| 11.4 | CNc1nc(Nc2cn(-c3ncccn3)nc2C)ncc1C(F)(F)F [Example 128, N4-methyl-N2-(3-methyl-1-(pyrimidin-2-yl)-1H-pyrazol-4-yl)-5-(trifluoromethyl) pyrimidine-2,4-diamine] |
| 28 | CNc1nc(Nc2cn(-c3ccc(Cl)cc3)nc2C)ncc1C(F)(F)F [Example 129, N2-(1-(4-chlorophenyl)-3-methyl-1H-pyrazol-4-yl)-N4-methyl-5-(trifluoromethyl) pyrimidine-2,4-diamine] |
| 1.1 | CNc1nc(Nc2cn(CCF)nc2C)ncc1C(F)(F)F [Example 130, N2-(1-(2-fluoroethyl)-3-methyl-1H-pyrazol-4-yl)-N4-methyl-5-(trifluoromethyl) pyrimidine-2,4-diamine] |
| 37.4 | CNc1nc(Nc2cn(C3CCN(C4COC4)CC3)nc2C)ncc1C(F)(F)F [Example 131, N4-methyl-N2-(3-methyl-1-(1-(oxetan-3-yl)piperidin-4-yl)-1H-pyrazol-4-yl)-5-(trifluoromethyl) pyrimidine-2,4-diamine] |
| 1.8 | CNc1nc(Nc2cnn(CCF)c2C)ncc1C(F)(F)F [Example 133, N2-(1-(2-fluoroethyl)-5-methyl-1H-pyrazol-4-yl)-N4-methyl-5-(trifluoromethyl) pyrimidine-2,4-diamine] |
| 2.2 | CCNc1nc(Nc2cn(C3CCN(C(C)=O)CC3)nc2C)ncc1C(F)(F)F [Example 134, 1-(4-(4-(4-(ethylamino)-5-(trifluoromethyl)pyrimidin-2-ylamino)-3-methyl-1H-pyrazol-1-yl)piperidin-1-yl)ethanone] |
| 1 | CNc1nc(Nc2cnn(C3CCN(C(=O)C4CC4)CC3)c2C)ncc1C(F)(F)F [Example 135, cyclopropyl(4-(5-methyl-4-(4-(methylamino)-5-(trifluoromethyl)pyrimidin-2-ylamino)-1H-pyrazol-1-yl)piperidin-1-yl)methanone] |
| 9.3 | CNc1nc(Nc2cn(C3CCN(C(=O)C4CC4)CC3)nc2C)ncc1C(F)(F)F [Example 136, cyclopropyl(4-(3-methyl-4-(4-(methylamino)-5-(trifluoromethyl)pyrimidin-2-ylamino)-1H-pyrazol-1-yl)piperidin-1-yl)methanone] |
| 0.4 | CCNc1nc(Nc2cnn(C3CCN(C(C)=O)CC3)c2C)ncc1C(F)(F)F [Example 137, 1-(4-(4-(4-(ethylamino)-5-(trifluoromethyl)pyrimidin-2-ylamino)-5-methyl-1H-pyrazol-1-yl)piperidin-1-yl)ethanone] |
| 1.1 | CNc1nc(Nc2cnn(C(C)C)c2Cl)ncc1C(F)(F)F [Example 138, N2-(5-chloro-1-isopropyl-1H-pyrazol-4-yl)-N4-methyl-5-(trifluoromethyl) pyrimidine-2,4-diamine] |
| 2 | CCn1ncc(Nc2ncc(C(F)(F)F)c(NC)n2)c1Cl [Example 139, N2-(5-chloro-1-ethyl-1H-pyrazol-4-yl)-N4-methyl-5-(trifluoromethyl) pyrimidine-2,4-diamine] |
| 6.1 | CNc1nc(Nc2cn(-c3cncnc3)nc2C)ncc1C(F)(F)F [Example 140, N4-methyl-N2-(3-methyl-1-(pyrimidin-5-yl)-1H-pyrazol-4-yl)-5-(trifluoromethyl) pyrimidine-2,4-diamine] |
| 41 | CNc1nc(Nc2nn(C3CCN(C)CC3)cc2C)ncc1C(F)(F)F [Example 141, N4-methyl-N2-(4-methyl-1-(1-methylpiperidin-4-yl)-1H-pyrazol-3-yl)-5-(trifluoromethyl) pyrimidine-2,4-diamine] |
| 0.3 | CNc1nc(Nc2cnn(-c3ccnc(C)c3)c2C)ncc1C(F)(F)F [Example 142, N4-methyl-N2-(5-methyl-1-(2-methylpyridin-4-yl)-1H-pyrazol-4-yl)-5-(trifluoromethyl) pyrimidine-2,4-diamine] |
| 6.9 | CNc1nc(Nc2cn(-c3ccnc(C)c3)nc2C)ncc1C(F)(F)F [Example 143, N4-methyl-N2-(3-methyl-1-(2-methylpyridin-4-yl)-1H-pyrazol-4-yl)-5-(trifluoromethyl) pyrimidine-2,4-diamine] |

| Ki [nM] | Compound |
| --- | --- |
| 0.9 | CCNc1nc(Nc2cn(CC3(C)COC3)nc2C)ncc1C(F)(F)F [Example 144, N4-ethyl-N2-(3-methyl-1-((3-methyloxetan-3-yl)methyl)-1H-pyrazol-4-yl)-5-(trifluoromethyl) pyrimidine-2,4-diamine] |
| 1.7 | CNc1nc(Nc2cnn(C3CC3)c2Cl)ncc1C(F)(F)F [Example 145, N2-(5-chloro-1-cyclopropyl-1H-pyrazol-4-yl)-N4-methyl-5-(trifluoromethyl) pyrimidine-2,4-diamine] |
| 0.3 | CNc1nc(Nc2cnn(CC3CC3)c2Cl)ncc1C(F)(F)F [Example 146, N2-(5-chloro-1-(cyclopropyl-methyl)-1H-pyrazol-4-yl)-N4-methyl-5-(trifluoromethyl) pyrimidine-2,4-diamine] |
| 17 | CNc1nc(Nc2cnn(-c3ccc(C#N)cc3)c2C)ncc1C(F)(F)F [Example 147, 4-(5-methyl-4-(4-(methylamino)-5-(trifluoromethyl)pyrimidin-2-ylamino)-1H-pyrazol-1-yl)benzonitrile] |
| 0.3 | CNc1nc(Nc2cn(-c3ccc(C#N)cc3)nc2C)ncc1C(F)(F)F [Example 148, 4-(3-methyl-4-(4-(methylamino)-5-(trifluoromethyl)pyrimidin-2-ylamino)-1H-pyrazol-1-yl)benzonitrile] |
| 6.8 | CNc1nc(Nc2cn(C3CCOC3)nc2C)ncc1C(F)(F)F (stereo not drawn) [Example 149, N4-methyl-N2-(3-methyl-1-(tetrahydrofuran-3-yl)-1H-pyrazol-4-yl)-5-(trifluoromethyl) pyrimidine-2,4-diamine] |
| 5.1 | CNc1nc(Nc2cnn(C3CCOC3)c2C)ncc1C(F)(F)F (stereo not drawn) [Example 150, N4-methyl-N2-(5-methyl-1-(tetrahydrofuran-3-yl)-1H-pyrazol-4-yl)-5-(trifluoromethyl) pyrimidine-2,4-diamine] |
| 1.1 | CCNc1nc(Nc2cnn(C3CCC(=O)N(C)C3)c2C)ncc1C(F)(F)F (stereo not drawn) [Example 151, 5-(4-(4-(ethylamino)-5-(trifluoromethyl)pyrimidin-2-ylamino)-5-methyl-1H-pyrazol-1-yl)-1-methylpiperidin-2-one] |
| 7.3 | CCNc1nc(Nc2cn(C3CCC(=O)N(C)C3)nc2C)ncc1C(F)(F)F (stereo not drawn) [Example 152, 5-(4-(4-(ethylamino)-5-(trifluoromethyl)pyrimidin-2-ylamino)-3-methyl-1H-pyrazol-1-yl)-1-methylpiperidin-2-one] |
| 9.7 | CNc1nc(Nc2cn(C3CCC(=O)NC3)nc2C)ncc1C(F)(F)F (stereo not drawn) [Example 153, 5-(3-methyl-4-(4-(methylamino)-5-(trifluoromethyl)pyrimidin-2-ylamino)-1H-pyrazol-1-yl)piperidin-2-one] |
| 2.2 | CNc1nc(Nc2cnn(C3CCC(=O)NC3)c2C)ncc1C(F)(F)F (stereo not drawn) [Example 154, 5-(5-methyl-4-(4-(methylamino)-5-(trifluoromethyl)pyrimidin-2-ylamino)-1H-pyrazol-1-yl)piperidin-2-one] |
| 0.3 | CNc1nc(Nc2cnn(-c3ccc(C(=O)N(C)C)cc3)c2C)ncc1C(F)(F)F [Example 156, N,N-dimethyl-4-(5-methyl-4-(4-(methylamino)-5-(trifluoromethyl)pyrimidin-2-ylamino)-1H-pyrazol-1-yl)benzamide] |
| 0.3 | CCNc1nc(Nc2cnn(-c3ccc(C(=O)N(C)C)cc3)c2C)ncc1C(F)(F)F [Example 157, 4-(4-(4-(ethylamino)-5-(trifluoromethyl)pyrimidin-2-ylamino)-5-methyl-1H-pyrazol-1-yl)-N,N-dimethylbenzamide] |
| 0.3 | CCNc1nc(Nc2cnn(C3CCOCC3)c2C)ncc1C(F)(F)F [Example 158, N4-ethyl-N2-(5-methyl-1-(tetrahydro-2H-pyran-4-yl)-1H-pyrazol-4-yl)-5-(trifluoromethyl) pyrimidine-2,4-diamine] |
| 3.9 | CCNc1nc(Nc2cn(C3CCOCC3)nc2C)ncc1C(F)(F)F [Example 159, N4-ethyl-N2-(3-methyl-1-(tetrahydro-2H-pyran-4-yl)-1H-pyrazol-4-yl)-5-(trifluoromethyl) pyrimidine-2,4-diamine] |
| 0.3 | CCNc1nc(Nc2cn(S(C)(=O)=O)nc2C)ncc1C(F)(F)F [Example 160, N4-ethyl-N2-(3-methyl-1-(methylsulfonyl)-1H-pyrazol-4-yl)-5-(trifluoromethyl) pyrimidine-2,4-diamine] |
| 0.3 | CNc1nc(Nc2cn(-c3ccc(S(=O)(=O)C4CC4)cc3)nc2C)ncc1C(F)(F)F [Example 161, N2-(1-(4-(cyclopropyl-sulfonyl)phenyl)-3-methyl-1H-pyrazol-4-yl)-N4-methyl-5-(trifluoromethyl) pyrimidine-2,4-diamine] |
| 0.3 | CCNc1nc(Nc2cnn(-c3ccc(C#N)cc3)c2C)ncc1C(F)(F)F [Example 162, 4-(4-(4-(ethylamino)-5-(trifluoromethyl)pyrimidin-2-ylamino)-5-methyl-1H-pyrazol-1-yl)benzonitrile] |
